These results are taken from patent US10912815B2, “Inhibitors of mitochondrial fission and methods of use thereof” (The Board of Trustees of the Leland Stanford Junior …, priority 2011, dated 2021).

No end group written: not given here.

Assay [1] concerns the target T1, Mfn1 (Homo sapiens, UniProt Q8IWA4).
T1 sequence (Q8IWA4 1-741): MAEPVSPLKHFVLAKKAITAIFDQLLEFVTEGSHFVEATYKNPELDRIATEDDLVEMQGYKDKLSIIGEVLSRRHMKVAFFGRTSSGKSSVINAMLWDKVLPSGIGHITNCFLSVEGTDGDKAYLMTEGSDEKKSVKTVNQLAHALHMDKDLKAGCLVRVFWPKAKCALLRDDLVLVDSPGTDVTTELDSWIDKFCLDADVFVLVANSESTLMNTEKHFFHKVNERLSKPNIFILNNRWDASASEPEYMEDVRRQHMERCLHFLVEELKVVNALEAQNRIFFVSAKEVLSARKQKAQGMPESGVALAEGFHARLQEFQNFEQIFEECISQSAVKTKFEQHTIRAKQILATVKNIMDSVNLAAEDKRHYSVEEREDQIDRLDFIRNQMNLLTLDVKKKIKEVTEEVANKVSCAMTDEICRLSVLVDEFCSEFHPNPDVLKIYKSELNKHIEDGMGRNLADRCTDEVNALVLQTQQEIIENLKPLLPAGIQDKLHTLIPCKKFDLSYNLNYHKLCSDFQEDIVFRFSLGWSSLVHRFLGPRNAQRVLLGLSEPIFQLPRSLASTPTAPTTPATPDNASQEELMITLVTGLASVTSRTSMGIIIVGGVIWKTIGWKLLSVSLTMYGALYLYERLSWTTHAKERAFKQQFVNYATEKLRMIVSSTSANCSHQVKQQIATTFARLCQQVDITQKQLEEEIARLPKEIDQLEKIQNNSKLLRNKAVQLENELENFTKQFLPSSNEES
As to the kind of experiment: In vitro GTPase assay, recombinant Mfn1. Conditions: recombinant Mfn1 25 ng, FIG. 2B. The format is biochemical. Here is the method:
First, mitochondrial fission inhibitor constructs were tested to determine what, if any, effects each peptide had on enzyme (GTPase) activity. Recombinant protein Drp1, Mfn1, OPA1 or dynamin-1 (25 ng) was incubated with the indicated modulator peptides for 30 min. GTPase activity was assayed in vitro using a GTPase assay kit (Innova Biosciences, Littleton, USA, or Novus Biologicals, Littleton, Colo.) according to manufacturer's instructions.

Assay [2] relates to SH-SY5Y cells. As to the kind of experiment: Mitochondrial membrane potential in SH-SY5Y cells (TMRM). The class given is cell-based, human. The note with it: SH-SY5Y in the presence of MPP+ or CCCP, FIG. 6B. Here is the method:
(§1) The effects of MPP+ or CCCP on translocation of Drp1 in the absence and presence of P110 was measured using confocal microscopy. Cultured SH-SY5Y cells in black 96-well plate were treated with Drp1 peptide inhibitor P110 (1 μM) 30 min prior to treatment of MPP+ (2 mM) or CCCP (5 uM). After 2 hrs of treatment, cells were stained with MITOSOX™ (red mitochondrial superoxide indicator) (5 uM, for 10 min, mitochondrial ROS) or TMRM (0.5 uM, for 20 min, MMP) at 37° C. For total ROS detection, cells were treated with MPP+ or CCCP for 24 hrs. ROS level was measured by CM-H2DCFDA (1 μM for 30 min, Invitrogen). Cells were washed with PBS for three times. The detection was performed in a fluorescence microplate reader (Tecan, Infinite M1000) according to manufacturer's instructions. Measurements were normalized to the cell number counted using Hoechst staining.
(§2) Mitochondrial membrane potential was also determined using TMRM (tetramethylrhodamine methylester). […] Fluoresence detection was performed using black 96-well plates in a fluorescence microplate reader at 560 nm excitation and 690 nm emission and potential was assessed by quenching of the fluorescent signal. […] A kinetic change of mitochondrial superoxide production was determined by using MITOSOX™ (red mitochondrial superoxide indicator). […]

Assay [3] deals with mitochondrial electron transport chain (complexes I-V). The experiment in a line: Mitochondrial complex I-V assembly in SH-SY5Y cells (western blot). The format is cell-based, human. Conditions: SH-SY5Y treated with MPP+, FIG. 8. On the procedure: The oxidative phosphorylation system in the mitochondria is responsible for generating ATP and consists of five major membrane protein complexes, the mitochondrial complexes I-V. MPP+ is a specific mitochondrial complex I inhibitor. P110 was tested for potential effects on MPP+-induced defects in mitochondrial complexes. […] The lower panel is a histogram in which the quantitative data generated from the western blot are expressed as mean±S.E. of 3 independent experiments.
(In western blotting, separated proteins are transferred to a membrane and probed.)

Assay [4] relates to isolated mouse liver mitochondria with Drp1 recombinant protein. The experiment in a line: Membrane potential of isolated mouse liver mitochondria incubated with Drp1 (TMRM). The format is biochemical. The note with it: P110 1 μM, NAC 2.5 mM, FIG. 6D bottom. Here is the method:
Mitochondrial membrane potential was also determined using TMRM (tetramethylrhodamine methylester). Fifty μg of mitochondria were incubated with recombinant Drp1 (50 ng) followed by incubation with TMRM (0.5 μM) in the presence or absence of P110 (1 μM) or NAC (2.5 mM). Fluoresence detection was performed using black 96-well plates in a fluorescence microplate reader at 560 nm excitation and 690 nm emission and potential was assessed by quenching of the fluorescent signal. The data are presented as mean±S.E. of percentage relative to control mitochondria from three independent experiments (FIG. 6B, #, p<0.05 vs. control cells; *, p<0.05; **, P<0.01 vs. MPP+- or CCCP-treated cells). Isolated mouse liver mitochondria (50 μg) were incubated with Drp1 recombinant protein (50 ng) in the presence or absence of P110 (1 μM). A kinetic change of mitochondrial superoxide production was determined by using MITOSOX™ (red mitochondrial superoxide indicator). The data are presented as mean±S.E. of percentage relative to the value at basal level from three independent experiments (FIG. 6C, #, p<0.05 vs. control mitochondria; *, p<0.05 vs. mitochondria with the addition of Drp1). Mitochondrial membrane potential of isolated mouse liver mitochondria was determined by TMRM, as described above, in the indicated groups. NAC (2.5 mM) was used as a positive control (FIG. 6D). Protein levels of cytochrome c in the mitochondria were determined by western blot analysis with anti-cytochrome c antibodies in the indicated groups (insert, FIG. 6D). Total ROS production was determined by staining SH-SY5Y cells with CM2HDCFA (1 μM […] at 37° C.) in the indicated groups. The data are presented as mean±S.E. of percentage relative to control group from three independent experiments (FIG. 6E, *, p<0.05 vs. either MPP+ or CCCP treated-group; #, p<0.05 vs. control group).
The mitochondrial membrane potential of isolated mouse liver mitochondria was then measured in the presence or absence of P110.

Assay [5] has as its system SH-SY5Y cells. The experiment in a line: Total ROS production in SH-SY5Y cells (CM-H2DCFDA). The format is cell-based, human. The note with it: MPP+ and CCCP 24 hrs, FIG. 6E. Here is the method:
as §1, §2

Assay [6] concerns SH-SY5Y cells. As to the kind of experiment: Apoptosis markers on mitochondria of SH-SY5Y cells (western blot: NT-Bax, cytochrome c, Bcl-2). The format is cell-based, human. Conditions: MPP+ 2 mM 1 hour, FIG. 9A. Here is the method:
SH-SY5Y neuronal cells were treated with P110 followed by the exposure to MPP+(2 mM for 1 hour). Active form of Bax (NT-Bax), cytochrome c and Bcl-2 on the mitochondria were determined by western blot analysis with the indicated antibodies. Shown are representative data of three independent experiments. Quantification of the data are provided as mean±SE of three independent experiments.

In assay [7] the test system is SH-SY5Y cells.
Procedure: Cell viability of stressed SH-SY5Y cells was measured by MTT assay.
In another experiment, Human SH-SY5Y cells were treated with Drp1 P108, P109 or P110 or Fis1 P111, P112 or P113 (0.5 μM) for 15 min followed by treatment with MPP+(1 mM for 24 hrs). The cell viability was then determined by MTT test.

In the case of “RRRQRRKKRGYGGDLLPRGS (RRRQRRKKRGYGGDLLPRGS-NH2) [P110]”, the “effect on GTPase activity of Mfn1 (mitofusin 1)” value in assay [1] was “no effects”. Also, the “mitochondrial membrane potential (MMP)” value in assay [2] was “significantly recovered”. Also, in assay [3], the “MPP+-induced reduction of NDUFB8 (complex I) and MTCOI (complex IV)” value was “abolished the reduction of these two proteins”; the “assembly of the mitochondrial electron transport chain (ETC)” value is listed as “improved the assembly”. The “mitochondrial membrane potential (MMP) of isolated mitochondria after Drp1 addition” value in assay [4] is on record as “improved the MMP”. For the same sequence, the “total ROS produced by the mitochondrial stressors” value in assay [5] is “greatly reduced”. In addition, in assay [6], the “Bcl-2 levels on the mitochondria” value is listed as “improved decreased Bcl-2 levels”, the “accumulation of active Bax on the mitochondria” value is recorded as “greatly reduced accumulation of active Bax” and the “release of cytochrome c from the mitochondria” value was “blocked the release of cytochrome c”. Moreover, in assay [7] (peptides 0.5 μM 15 min, MPP+ 1 mM for 24 hrs, n=7-8, FIG. 9F), the “mitochondrial damage and neuronal cell death (MTT)” value was “reduced mitochondrial damage and neuronal cell death”. Moreover, in assay [7] (peptides 1 μM each, MPP+ 2 mM for 24 hours, FIG. 9E), the “cell viability (MTT)” value is “improved cell viability”.
